Measured values taken from PMC11412156 (Journal of medicinal chemistry, 2024).

Legend:
[1] = Pharmacokinetic study in rats; assay type: in vivo, SD rats; settings: for CL / Vz: SD rats, ig (oral) 50 mg/kg; for AUC(0-inf) / AUC(0-t) / Cmax / Tmax / Vd / clearance / half-life / bioavailability: both, Sprague-Dawley, rat, plasma; for bioavailability: oral
[2] = In vitro metabolic stability in rat liver microsomes; assay type: in vitro ADME; settings: for half-life: Sprague-Dawley, rat, liver microsomes, pH 7.4; for metabolic stability in RLM, column 0: incubation 0 min; for metabolic stability in RLM, column 0 / metabolic stability in RLM, column 10 / metabolic stability in RLM, column 30 / metabolic stability in RLM, column 45 / metabolic stability in RLM, column 60: 37 °C, NADPH; for metabolic stability in RLM, column 10: incubation 10 min; for metabolic stability in RLM, column 30: incubation 30 min; for metabolic stability in RLM, column 45: incubation 45 min; for metabolic stability in RLM, column 60: incubation 60 min
[3] = system: xylene-induced ear swelling inflammation in mice; assay: Xylene-induced ear swelling inflammation model in mice; assay type: in vivo, Kunming mice; settings: Table 7 dose study
[4] = target: HDAC3 (Homo sapiens, UniProt O15379); assay: HDAC enzyme-based fluorogenic assay, HDAC3; assay type: biochemical
HDAC3, sequence (O15379 whole entry): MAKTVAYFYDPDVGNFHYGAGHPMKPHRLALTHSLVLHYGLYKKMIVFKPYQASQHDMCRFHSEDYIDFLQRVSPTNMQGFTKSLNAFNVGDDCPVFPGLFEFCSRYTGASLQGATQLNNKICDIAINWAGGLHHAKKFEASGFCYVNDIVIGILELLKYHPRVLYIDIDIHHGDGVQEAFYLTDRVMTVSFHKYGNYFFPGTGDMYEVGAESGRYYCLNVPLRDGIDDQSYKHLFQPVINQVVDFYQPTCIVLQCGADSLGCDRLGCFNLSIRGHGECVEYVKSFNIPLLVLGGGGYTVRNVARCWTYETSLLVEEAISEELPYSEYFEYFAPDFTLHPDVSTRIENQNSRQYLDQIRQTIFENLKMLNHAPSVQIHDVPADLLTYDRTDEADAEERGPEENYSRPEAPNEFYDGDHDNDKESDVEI
HDAC3, sequence (Q9Y618 395-489 partner limits assumed): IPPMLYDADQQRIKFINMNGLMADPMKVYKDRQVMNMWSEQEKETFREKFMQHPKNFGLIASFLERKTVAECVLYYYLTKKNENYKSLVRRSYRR

[5] = system: LPS-induced RAW264.7 cells; assay: Inflammatory factors and iNOS in LPS-induced RAW264.7 cells; assay type: cell-based
[6] = system: acetylation of α-tubulin and histone H3 in THP-1 cell; assay: Western blot of acetylation of α-tubulin and histone H3 in THP-1 cell; assay type: cell-based; settings: 1 μM and 2 μM, 24 h
[7] = system: formalin-induced inflammatory pain in mice; assay: Formalin-induced inflammatory pain model in mice; assay type: in vivo, Kunming mice; settings: for pain response, second phasic response: dose study, Figure 15, compared with the model group
[8] = target: T1, HDAC8 (Homo sapiens, UniProt Q9BY41); assay: HDAC enzyme-based fluorogenic assay, HDAC8; assay type: biochemical
T1 sequence (Q9BY41 1-377): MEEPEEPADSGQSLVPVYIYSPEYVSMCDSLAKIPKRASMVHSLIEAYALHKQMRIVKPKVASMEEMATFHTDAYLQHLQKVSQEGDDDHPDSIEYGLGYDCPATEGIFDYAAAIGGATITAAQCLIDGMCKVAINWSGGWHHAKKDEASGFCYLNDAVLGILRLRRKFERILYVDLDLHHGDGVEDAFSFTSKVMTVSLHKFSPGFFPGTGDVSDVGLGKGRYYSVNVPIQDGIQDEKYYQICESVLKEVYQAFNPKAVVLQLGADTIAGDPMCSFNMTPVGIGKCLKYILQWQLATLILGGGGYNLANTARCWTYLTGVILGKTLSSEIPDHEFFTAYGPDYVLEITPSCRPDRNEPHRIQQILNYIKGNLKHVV

[9] = Acute toxicity test; settings: in vivo

Compound | CL [1] | Vz [1] | AUC(0-inf) ([1]; iv, 10 mg/kg) | AUC(0-t) ([1]; iv, 10 mg/kg) | Cmax ([1]; iv, 10 mg/kg) | Tmax ([1]; iv, 10 mg/kg) | Vd ([1]; iv, 10 mg/kg) | clearance ([1]; iv, 10 mg/kg) | half-life ([1]; iv, 10 mg/kg) | bioavailability ([1]; 50 mg/kg) | AUC(0-inf) ([1]; po, 50 mg/kg) | AUC(0-t) ([1]; po, 50 mg/kg) | Cmax ([1]; po, 50 mg/kg) | Tmax ([1]; po, 50 mg/kg) | half-life ([1]; po, 50 mg/kg) | half-life [2] | metabolic stability in RLM, column 0 [2] | metabolic stability in RLM, column 10 [2] | metabolic stability in RLM, column 30 [2] | metabolic stability in RLM, column 45 [2] | also measured
O=C(CCCCCCNC(=O)[C@H]1CCCN(C(=O)c2ccc(NC(=O)Nc3ccc(Cl)c(F)c3)c(F)c2)C1)NO [Compound 28g, (S)-1-(4-(3-(4-Chloro-3-fluorophenyl)ureido)-3-fluorobenzoyl)-N-(7-(hydroxyamino)-7-oxoheptyl)piperidine-3-carboxamide] | 0.82 L/h | 4.20 L | 21.2 µM·h | 12.3 µM·h | 7.87 µM | 0.08 h | 1.28 L | 2.67 mL/min | 5.43 h | 24.4% | 21.2 µM·h | 15 µM·h | 6.63 µM | 0.5 h | 3.55 h | 2.28 h | 100.00 | 91.61 | 83.80 | 78.76 | metabolic stability in RLM, column 60 [2]: 70.64; Inhibition rate ([3]; 10 mg/kg by gavage for 7 days): 44.39%; Swelling degree ([3]; 10 mg/kg by gavage for 7 days): 8.7 ± 1.7 mg; Swelling rate ([3]; 10 mg/kg by gavage for 7 days): 69.39%; Inhibition rate ([3]; 30 mg/kg by gavage for 7 days): 67.17%; Swelling degree ([3]; 30 mg/kg by gavage for 7 days): 5.1 ± 0.9 mg; Swelling rate ([3]; 30 mg/kg by gavage for 7 days): 39.50%; IC50 [4]: 1280 nM; levels of gene expression of iNOS ([5]; LPS-induced RAW264.7 cells, western blot): suppressed; levels of IL-6, IL-1β, TNF-α and NO ([5]; RAW264.7 cells preconditioned 1–100 µg/mL for 12 h, then LPS 1 µg/mL 12 h, ELISA): significantly reversed this change; acetylation of histone H3 [6]: without affecting histone H3; acetylation of α-tubulin [6]: induced an increase in acetylation of α-tubulin; pain response, second phasic response ([7]; 10 mg/kg): reduced the pain response; pain response, second phasic response ([7]; 30 mg/kg (high-dose)): significantly reduced the pain response; pain response time, first phasic response ([7]; mice, 30 mg/kg intraperitoneally, Figure 13): did not significantly reduce the pain response time; IC50 [8]: 62 nM; safety in acute toxicity test [9]: good safety
O=C(CCCCCCNC(=O)[C@H]1CCCN(C(=O)c2ccc(NC(=O)Nc3cc(F)cc(F)c3)c(F)c2)C1)NO [Compound 28j, (S)-1-(4-(3-(3,5-Difluorophenyl)ureido)-3-fluorobenzoyl)-N-(7-(hydroxyamino)-7-oxoheptyl)piperidine-3-carboxamide] | 0.96 L/h | 3.95 L | 20 µM·h | 13.8 µM·h | 8.1 µM | 0.08 h | 1.1 L | 3 mL/min | 4.08 h | 21.5% | 18.7 µM·h | 14.8 µM·h | 10.1 µM | 0.17 h | 2.84 h | 0.939 h | 100.00 | 85.62 | 73.00 | 59.75 | metabolic stability in RLM, column 60 [2]: 50.47; IC50 [4]: 2620 nM; IC50 [8]: 72 nM
